“Also recorded” adds a separate entry of the source.
How the values were obtained:
HT22 mt-GFP cells = test: Mitochondrial Network Morphology Analysis; assay type: cell-based, mouse
Experimental: Mitochondrial Network Morphology Analysis. HT22 mt-GFP cells were seeded at 20,000 cells/well on glass coverslips in 24-well plates in DMEM supplemented with 10% FBS and 1% antibiotics. The following day, the cells were treated with the test compounds for the desired period of time. After rinsing with PBS, the cells on glass coverslips were fixed with 4% paraformaldehyde (pH 7.4) for 10 min at 37° C. After additional PBS rinses, the coverslips were mounted onto glass microslides with Fluoro-Gel (Electron Microscopy Sciences, Cat #17985-10). Z-stack images of fixed cells were acquired on a Zeiss LSM 880 rear port laser scanning confocal and Airyscan FAST microscope with ZEN Black software to trace and render cells in 3D. The mitochondrial network morphology parameters (n=20-25 cells/condition) were scored and analyzed with the MiNA module of ImageJ/Fiji software.

HT22 cells [1] = test: Relative mtDNA copy number (qPCR); assay type: cell-based, mouse
Experimental: Quantitative Reverse Transcription PCR (qPCR) Analysis. HT22 cells were seeded onto 60 mm dishes at a density of 140,000 cells/dish in DMEM supplemented with 10% FBS and 1% antibiotics. After the desired treatments, total RNA was extracted using the RNeasy Mini Kit (Qiagen, Cat #74104, Hilden, Germany). cDNA was synthesized using SuperScript III First-Strand Synthesis System for qPCR (Invitrogen, Cat #18080051, Carlsbad, CA). Amplification was performed with TaqMan Fast Advanced Master Mix (ThermoFisher Scientific, Cat #4444556, Carlsbad, CA) using a QuantStudio 3 Real-Time PCR Systems (ThermoFisher Scientific, CA). The primer pairs were used as follows: CNR1 (Forward, 5′-[…]-3′; Reverse, 5′-[…]-3′); CNR2 (Forward, 5′-[…]-3′; Reverse, 5′-GCCGGGAGGACAGGATAAT-3′). The expression of the GAPDH gene was measured for normalization. The mouse Mitochondrial DNA Copy Number Kit was used (Detroit R&D, Cat #MCN3, Detroit, MI) according to the manufacturer's instructions. Relative fold change was calculated using the 2^(−ΔΔCt) method. Samples were analyzed in three dishes per independent experiment (n=3).

[2] = Cell-free, liposome-based assay of lipid peroxidation (STY-BODIPY); assay type: biochemical; conditions: test compounds 10 μM
Experimental: For the cell-free, liposome-based assay, STY-BODIPY (1.5 μM) and liposomes of egg-PC (1 mM) (Avanti Polar Lipids Inc, Cat #840051P, AL) in TBS (pH 7.4) were added to an opaque 96-well plate. This was followed by the addition of test compounds (10 μM). The plate was incubated for 30 min at 37° C. and then vigorously mixed for 5 min. The autoxidation was initiated by the addition of V-70 (0.5 mM) (Fujifilm Wako, Cat #001-70078, Japan), followed by additional mixing for 5 min. Data were acquired at Ex/Em=488/518 nm every 15 min at 37° C. on a SpectraMax M5 microplate reader. Data were transformed into [ox-STY-BODIPY] by taking the raw fluorescent values of the saturated curve of control DMSO and dividing them by the initial concentration of reduced STY-BODIPY ([…]). Samples were analyzed in quadruplicate in four independent experiments (n=4).

HT22 cells [3] = test: MitoTracker Assay (mitochondrial mass); assay type: cell-based, mouse
Experimental: MitoTracker Assay. HT22 cells were seeded onto 96-well black walled plates at a density of 5,000 cells/well in DMEM supplemented with 10% FBS and 1% antibiotics. After the desired treatments, MitoTracker Orange CM−H2TMRos (Ex/Em=554/576 nm) and Hoechst 33342 (Ex/Em=360/460 nm) dyes were added to the cells and incubated under the same culture condition for 2 hr. Fluorescence was measured on a SpectraMax M5 microplate reader. Experiments were performed according to the manufacturer's instructions. Data were normalized for total protein/well. Each condition was analyzed in sixteen wells per independent experiment (n=16). Results were presented as the percentage of the controls with vehicle alone. Results were verified by live-cell imaging under a fluorescence microscope.

HT22 mt-GFP WT cells = test: Cell viability after RSL3 with/without FCCP (CyQUANT DNA-based assay, fluorescence microscopy), mt-GFP WT cells; parameters: species or system mouse
HT22 cells [4] = test: Seahorse XF Analysis (mitochondrial stress test) in HT22 cells; assay type: cell-based, mouse
Experimental: Seahorse XF Analysis. The assay procedure was previously described. Cellular oxygen consumption rates (OCR) were assayed with a XF Cell Mito Stress Test Kit using a Seahorse XFe96 Extracellular Flux Analyzer (Seahorse Bioscience, North Billerica, MA). Complete Seahorse XF DMEM assay medium was supplemented with 10 mM glucose, 1 mM pyruvate and 2 mM L-glutamine, at pH 7.4. Mitochondrial ETC inhibitors were used at the following concentrations: 1.5 μM oligomycin, 2 μM FCCP, and 0.5 μM of a 1:1 mixture of rotenone and antimycin A. Analyses were conducted using Wave software and XF Report Generators (Agilent Technologies). The sensor cartridge for the XFe analyzer was hydrated overnight at 37° C. before the experiment. OCR data were normalized for total protein/well. Each condition was analyzed in 20-40 wells per independent experiment (n=20-40).
For HT22 cells, 3,000 cells/well were seeded onto the Seahorse XFe96 plates under normal culture condition as described above. The next day, cells were pretreated with CBN at the desired concentrations for 1 hr followed by addition of RSL3 (50 nM) and coincubation for 16 hr. Immediately before the assay, the culture medium in the plates was replaced with complete Seahorse XF DMEM assay medium. The plates were incubated for 1 hr at 37° C. prior to the XF Cell Mito Stress tests according to the manufacturer's instructions.

[5] = test system: HT22 mt-GFP/mCherry-Parkin cells; test: Cell viability after RSL3 with/without FCCP (CyQUANT DNA-based assay, fluorescence microscopy), mt-GFP/mCherry-Parkin cells; parameters: species or system mouse
primary cortical neurons = test: Neuroprotection against RSL3 in primary neurons; assay type: cell-based, rat; conditions: CBN 10 μM, data not shown
Experimental: Embryonic Cortical Neuron Extraction. Primary cortical neurons were prepared from embryonic day 17 Sprague-Dawley rat pups and used at 7 days in vitro as previously described (7 DIV). Neurons were dissociated from the cortex and maintained in Neurobasal-A medium (Invitrogen, Cat #10888022, Carlsbad, CA) supplemented with B-27 Supplement (Invitrogen, Cat #17504044, Carlsbad, CA), 2 mM glutamine, and 1% antibiotics including penicillin and streptomycin. Cell cultures were incubated at 37° C. in a fully humidified atmosphere containing 10% CO2. All animal procedures were approved by the Salk Institute's Institutional Animal Care and Use Committee.

[6] = FCCP 24 hr, CBN additional 16 hr

Structure (SMILES): CCCCCc1cc(O)c2c(c1)OC(C)(C)c1ccc(C)cc1-2 [CBN, 6,6,9-Trimethyl-3-pentyl-benzo[c]chromen-1-ol]
- RSL3-induced mitochondrial fragmentation (HT22 mt-GFP cells; 50 nM RSL3): prevent the mitochondrial fragmentation
- individual and summed branch lengths of mitochondria (HT22 mt-GFP cells; CBN alone): significantly increased
- mitochondrial footprints and network branches (HT22 mt-GFP cells; CBN alone): no apparent effects
- mtDNA copy number with RSL3 (HT22 cells [1]; 50 nM RSL3, 16 hr): sustain mtDNA at the control level
- mtDNA copy number, compound alone (HT22 cells [1]; 5 μM): did not induce significant changes
- inhibition of lipid peroxidation, cell-free [2]: showed no inhibition
- increase of MitoTracker fluorescence (mitochondrial mass) (HT22 cells [3]; 5 μM, 16 hr, vs control group): 4.9%
- mitochondrial mass with RSL3 (HT22 cells [3]; RSL3-induced oxytosis/ferroptosis): preserve the mitochondrial mass at the control level
- protection against RSL3-induced cell death, no FCCP pretreatment (HT22 mt-GFP WT cells; 16 hr): strong and equivalent protection
- protection against RSL3 after FCCP pretreatment (HT22 mt-GFP WT cells; FCCP 5 μM 24 hr, then 16 hr): protected; also recorded: protective
- cell numbers after FCCP pretreatment, co-treatment with compound (HT22 mt-GFP WT cells; [6]): did not further change the cell numbers
- ATP production, compound alone (HT22 cells [4]; 10 μM): partially reduced ATP production
- basal and maximal mitochondrial respiration, compound alone (HT22 cells [4]; 10 μM): partially decreased both basal and maximal mitochondrial respiration
- mitochondrial respiration and ATP production with RSL3 (HT22 cells [4]; 10 μM pretreatment, RSL3 50 nM 16 hr): maintenance of mitochondrial respiration and ATP production
- protection against RSL3-induced cell death, no FCCP pretreatment ([5]; 16 hr): strong and equivalent protection
- protection against RSL3 after FCCP pretreatment (mitochondria-depleted cells) ([5]; FCCP 5 μM 24 hr, then 16 hr): failed to protect; also recorded: did not protect
- cell numbers after FCCP pretreatment, co-treatment with compound [5, 6]: did not further change the cell numbers
- neuroprotection against 50 nM RSL3 (primary cortical neurons): ~100%

From patent US20240261302A1, “METHODS OF TREATING NEURODEGENERATIVE DISEASES OR CONDITIONS” (FloraScience Inc., priority 2023, published 2024)
